How the values were obtained:
[1] = test system: parkinsonian monkey; assay: Severity of levodopa-induced dystonias in a parkinsonian monkey; assay type: in vivo; conditions: 8 mg/kg D-cycloserine with 40 mg/kg levodopa plus 15 mg benserazide vs L-Dopa alone; at least over 120 minutes; three repetitions
Description: Under these conditions, 8 mg/kg D-cycloserine was administered to the monkeys with 40 mg/kg levodopa plus 15 mg benserazide. The severity of the dystonia was rated by observers blind to the treatment condition. […] Three independent repetitions of the study were performed.

[2] = test system: parkinsonian monkeys; assay: Peak-dose levodopa anti-parkinsonian efficacy in parkinsonian monkeys; assay type: in vivo, monkey; conditions: 8 mg/kg D-cycloserine with 40 mg/kg levodopa plus 15 mg benserazide; assessed 30 or 60 minutes after levodopa; two parkinsonian monkeys
Description: In two parkinsonian monkeys with an established therapeutic response to levodopa, peak-dose levodopa efficacy was assessed by raters blind to treatment condition. Eight mg/kg D-cycloserine was administered to the monkeys with 40 mg/kg levodopa plus 15 mg benserazide.

[3] = test system: parkinsonian monkey; assay: Severity of levodopa-induced choreiform dyskinesias in a parkinsonian monkey; assay type: in vivo
Description: A parkinsonian monkey was primed for choreiform dyskinesia following chronic administration of levodopa plus the peripheral dopa decarboxylase inhibitor benserazide. […] Severity of the dyskinesias was rated by observers blind to the treatment condition. Three independent repetitions of the study were performed.

[4] = test system: parkinsonian monkeys; assay: Duration of levodopa anti-Parkinson effect ("on" time) in parkinsonian monkeys; assay type: in vivo, monkey; conditions: 8 mg/kg D-cycloserine with 40 mg/kg levodopa plus 15 mg benserazide, compared to levodopa plus benserazide alone; two parkinsonian monkeys; blinded raters
Description: Eight mg/kg D-cycloserine was administered to two parkinsonian monkeys with an established therapeutic response to levodopa, together with 40 mg/kg levodopa plus the 15 mg of the peripheral dopa decarboxylase inhibitor benserazide. Symptomatic benefit was assessed by raters blind to treatment condition.

| SMILES | severity of levodopa-induced dystonias [1] | effect on therapeutic (anti-parkinsonian) efficacy of levodopa, peak-dose [2] | severity of levodopa-induced choreiform dyskinesias ([3]; 8 mg/kg D-cycloserine with 40 mg/kg levodopa plus 15 mg benserazide vs L-Dopa alone, at least over 120 minutes, monkey primed by chronic levodopa/benserazide, three repetitions) | enhancement of levodopa "on" time, or duration of symptomatic relief by levodopa [4] [%] | choreiform dyskinesias caused by levodopa challenge ([3]; 40 mg/kg challenge dose of levodopa, parkinsonian monkey primed by chronic levodopa plus benserazide) |
| --- | --- | --- | --- | --- | --- |
| N[C@@H]1CONC1=O [D-cycloserine] | significantly decreased the severity of the dystonias | did not interfere with or reduce the therapeutic efficacy of levodopa | significantly decreased the severity of these dyskinesias | 41 | – |
| N[C@@H](Cc1ccc(O)c(O)c1)C(=O)O [levodopa] | – | – | – | – | caused significant choreiform dyskinesias |

From US7160913B2, “Methods and kit for treating Parkinson's disease” (Thomas Jefferson University, priority 2002, dated 2007)
